Measured values taken from US6492418B2, “Compositions containing a benzamide disulfide derivative for treating allergic diseases” (Alcon Universal Ltd., priority 2000, dated 2002).
“And” between values parts separate entries of the source, which are not always exact repeats. Equal entries are not always repeated. Where two headings read alike, the source gives them in different places.

Tested on: human conjunctival tissue mast cells
Experiment: Inhibition of anti-IgE induced histamine release from human conjunctival tissue mast cells (HCTMC)
Format: cell-based
Protocol: Methods detailing preparation of mono-dispersed HCTMC and mediator release studies with these cells have been described (U.S. Pat. No. 5,360,720 and Miller et al, Ocular Immunology and Inflammation, 4(1):39-49 (1996)). Briefly, human conjunctival tissue mast cells were isolated from post-mortem tissue donors obtained within 8 hours of death by various eye banks and transported in Dexsol® corneal preservation medium, or equivalent. Tissues were enzymatically digested by repeated exposure (30 min. at 37° C.) to collagenase and hyaluronidase (2× with 200 U each/gram tissue, then 2-4 × with 2000 U each/gram tissue) in Tyrode's buffer containing 0.1% gelatin. (Tyrode's buffer (in mM): 137 NaCl, 2.7 KCl, 0.35 NaH2PO4, 1.8 CaCl2, 0.98 MgCl2, 11.9 NaHCO3, and 5.5 glucose). Each digestion mixture was filtered over Nitex® cloth (100 μm mesh, Tetko, Briarcliff Manor, N.Y.) and washed with an equal volume of buffer. Filtrates were centrifuged at 825×g (7 min). Pellets were resuspended in buffer then combined for enrichment over a […] Percoll® cushion. The enriched pellet was washed, resuspended in supplemented RPMI 1640 medium and incubated at 37° C. to equilibrate.
Cells were harvested from the culture plate and counted for viability (trypan blue exclusion) and mast cell number (toluidine blue O). Mast cells (5000/tube; 1 mL final volume) were challenged (37° C.) for 15 min with goat-anti-human IgE (10 μg/mL) following treatment (15 minutes; 37° C.) with test drug or Tyrode's buffer. Total and non-specific release controls were exposed to 0.1% Triton X-100 and goat IgG (10 μg/mL), respectively. The reaction was terminated by centrifugation (500×g, 4° C., 10 min). Supernatants were stored at −20° C. until analyzed for histamine content by RIA (Beckman Coulter, Chicago, Ill.).
All test drugs were made to solution immediately prior to use. Each was dissolved in DMSO at 10 mM or greater concentration and then diluted in Tyrode's buffer containing 0.1% gelatin over the concentration for evaluation.
Inhibition of histamine release was determined by direct comparison of with anti-IgE challenged mast cells using Dunnett's t-test (Dunnett, “A multiple comparison procedure for comparing treatments with a control”, J. Amer. Stat. Assoc. (1955), 50:1096-1121).

[1] = Homo sapiens, Mast cell, bracketed value, apparently the mean of the individual determinations in the same cell, read-out: IC50(nM), value in square brackets
[2] = goat-anti-human IgE 10 μg/mL challenge 15 min after 15 min drug treatment, individual determinations (values outside brackets), read-out: IC50

Compound	IC50 [1] [nM]	IC50 [2]	IC50 (Homo sapiens, Mast cell, 0.25 h, goat-anti-human IgE 10 μg/mL challenge 15 min after 15 min drug treatment, individual determinations (values outside brackets), read-out: IC50) [nM]
O=C(NCCCN1CCOCC1)c1ccccc1SSc1ccccc1C(=O)NCCCN1CCOCC1 [Compound 2]	105	78 nM and 199 nM and 39 nM	–
C=CCNC(=O)c1ccccc1SSc1ccccc1C(=O)NCC=C [Compound 3]	148	–	–
CNC(=O)c1ccccc1SSc1ccccc1C(=O)NC [Compound 4]	282	–	–
CC(O)CNC(=O)c1ccccc1SSc1ccccc1C(=O)NCC(C)O (stereo not drawn) [Compound 5]	122	107 nM and 219 nM and 229 nM and 84 nM and 71 nM	–
CNC(=O)c1cccc(SSc2cccc(C(=O)NC)c2)c1 [Compound 6]	312	222 nM	402
